Holding throughout (assay type): cell-based
The subject of test [1] is Keratinocytes. The test can be described thus: IC50 on non-cancerous cell cultures. The following applies: normal primary short-term cell culture.
Test [2] has as its system SKOV3. Description: MTT assay (CellTiter96), cytotoxic activity. To be noted: 48 h incubation. As for the experimental part: (§1) The biological behaviour of all substances was characterized by their cytotoxic activity against a panel of cell lines enabling an understanding of the structure-activity relationship. Cytotoxic activity was determined on ovarian carcinoma cell lines SKOV3 and A2780 as well as their Cisplatin resistant analogues (SKOV3cis and A2780cis) and the lung carcinoma cell line A549. Due to a low solubility in water, dmso is used as a solvent for the preparation of a dilution series in cell culture experiments. The toxic influence of dmso was determined earlier and experiments were carried out with 0.5% dmso in cell culture media and this concentration was used as reference sample in each MTT assay (details: Section 3). […] Resistance factors (RF) were determined for all substances (for IC50 values and RF of β-Hydroxydithiocinnamic acid esters L1–L18, see Tables S2 and S3, Supplementary part). All investigated ruthenium(II) compounds show lower RF values than Cisplatin on ovarian carcinoma cell lines, ranging from 0.2 to 1.5 (Table 3). Whereas the IC50 values on the non-resistant cell lines are in most cases higher than the IC50 of the reference substance, no increase of IC50 values is observed for the resistant cell lines. Contrary, eight ruthenium complexes show lower IC50 values on SKOV3cis than Cisplatin and four compounds on A2780cis. Thus, it can be concluded that these compounds are able to bypass the Cisplatin resistance mechanism in these cell lines pointing to a different mechanism of action.
(§2) Ovarian cancer cell lines were cultured under standard conditions (5% CO2, 37 °C, 90% humidity) in RPMI medium supplemented with 10% FCS, 100 U/mL penicillin and 100 µg/mL streptomycin (Life Technologies, Dreieich, Germany). Cisplatin (Sigma, Taufkirchen, Germany) was freshly dissolved at 1 mg/mL in 0.9% NaCl solution and diluted appropriately. New ruthenium(II) complexes and ligands were dissolved in dmso. Platinum-resistant A2780 and SKOV3 cells were established by repeated rounds of 3-day incubations with increasing amounts of Cisplatin starting with 0.1 µM. The concentration was doubled after 3 incubations, interrupted by recovery phases with normal medium. […] Determinations of IC50 values were carried out using the CellTiter96 non-radioactive proliferation assay (MTT assay, Promega, Mannheim, Germany). After seeding 5000 cells per well in a 96-well plate, cells were allowed to attach for 24 h and were incubated for 48 h with different concentrations of the substances ranging from 0 to 500 µM for Ruthenium and 0 to 1000 µM for ligand tests (0, 1, 10, 50, 100, 500, 1000 µm), for Cisplatin from 0 to 100 µM (0.1, 1, 5, 10, 50, 100 µM). Each measurement was done in triplicate and repeated 3 times. The proportion of viable cells was quantified by the MTT assay and after background subtraction relative values compared to the mean of medium controls were calculated. Non-linear regression analyses applying the Hill slope were run in GraphPad 5.0 software.
A general note: Formazan colour is commonly taken as a measure of viable cells.

Test [3] deals with A2780. Description: MTT assay (CellTiter96), cytotoxic activity. To be noted: 48 h incubation. As for the experimental part:
as §1, §2

For test [4], the system named is A2780cis. The test can be described thus: MTT assay (CellTiter96), cytotoxic activity. As for the experimental part:
as §1, §2

The test system of test [5] is A549. The test can be described thus: MTT assay (CellTiter96), cytotoxic activity. To be noted: lung carcinoma cell line, 48 h incubation. As for the experimental part:
as §1, §2

The test system of test [6] is SKOV3cis. The test can be described thus: MTT assay (CellTiter96), cytotoxic activity. As to the method:
as §1, §2

The test system of test [7] is MCF10A. The test can be described thus: IC50 on non-cancerous cell cultures. The following applies: non-cancerous breast epithelial cell line.
Test [8] has as its system Fibroblasts. The test can be described thus: IC50 on non-cancerous cell cultures. The following applies: normal primary short-term cell culture.
The test system of test [9] is A2780 and SKOV3 cells and the resistant subcultures. Description: Cell cycle distribution, PI staining and FACS. To be noted: 5 µM, parental A2780 and SKOV3 cells, 48 h treatment, 24 h recovery. As for the experimental part: The reduced viability under treatment, as measured by the MTT assay, can be a result of cell cycle arrest and/or increased cell death. To further evaluate the anticancer properties of the ruthenium(II) complexes we measured cell cycle distribution and cell death rates after treatment with Ru3 or Ru14. After seeding and attaching, the cells were treated for 48 h with different concentrations of substances. For cell cycle distribution measurements, a recovery phase of 24 h was added after treatment, and cells were fixed and stained with PI for the DNA content. Arresting of cells in specific cell cycle phases gives them time to resolve the DNA damage (G1 arrest) or is an initial step to apoptosis if DNA damage is too severe (G2/M arrest).
(§3) To examine cell cycle distribution and cell death rates, 30,000 cells were seeded in 12 well plates. After attaching for 24 h cells were treated with Cisplatin, Ru3 and Ru14 for 48 h at various concentrations for cell cycle and cell death analyses. For cell death analysis, immediately after treatment cells were stained with Propidium Iodid (PI) (1 µg/mL) on ice and the number of dead cells was measured using BD Canto II. For cell cycle distribution, cells recovered for 24 h after treatment. Afterwards, cells were fixed in ice-cold, 50% EtOH for 24 h at −20 °C. For DNA staining, fixed cells were incubated in PBS with 0.05% Triton-X, 0.1 µg/mL RNaseA and 50 µg/mL PI for 1 h at 4 °C in dark. DNA content was measured using BD Canto II.

The subject of test [10] is SKOV3 cells. The test can be described thus: Cell death rate, PI staining of live cells (FACS). The following applies: parental SKOV3, 15 µM, 48 h. As to the method: (§4) For cell death rate analysis, live cells were stained with PI immediately after 48 h treatment. […] Furthermore, resistant cells show much lower Cisplatin-induced cell death rates (Figure 7). […] In A2780 cells, both compounds trigger similar cell death rates in parental and Cisplatin-resistant cells. Cisplatin-resistant SKOV3 are much more sensitive to both ruthenium(II) complexes than the parental counterpart, with a median of 3.3-fold higher sensitivity.
as §3

Test [11] concerns A2780 cells. Description: Cell death rate, PI staining of live cells (FACS). The following applies: parental A2780, 15 µM, 48 h, PI staining. As for the experimental part: as §4, §3

Data on 1 substance can be found in PMC9102668, “Highly Cytotoxic Osmium(II) Compounds and Their Ruthenium(II) Analogues Targeting Ovarian Carcinoma Cell Lines and Evading Cisplatin Resistance Mechanisms” (International Journal of Molecular Sciences, 2022).

Turning to cis-[Pt(NH3)2Cl2] [Cisplatin], the IC50 was 5.7 µM in test [1]; 3.8 µM in [2]; 1.3 µM in test [3]; 6.1 µM in [4] (Cisplatin resistant A2780, MTT assay, 48 h incubation); 7.6 µM in test [5]; 13.5 µM in test [6] (Cisplatin resistant SKOV3, MTT assay, 48 h incubation). Besides, the results for the IC50 in [7] and in [8] were 3.3 µM and 4.1 µM, respectively. Besides, the “RF A2780 (resistance factor)” value in test [4] (A2780cis vs A2780) was found to be 4.7. In addition, the “RF SKOV3 (resistance factor)” value in [6] (SKOV3cis vs SKOV3) amounted to 3.6. The “effect on cell cycle distribution” value in test [9] was “cell cycle arrest in G2/M phase”. In addition, the “cell death compared to untreated cells” value is 6.3 fold in test [10] and 29.9 fold in test [11].

A word on the IC50: it is the midpoint of a concentration-inhibition curve. Low readings indicate higher potency, high ones lower potency.
